The numbers were not newly measured in patent publication US20020001575A1, “Nutritional system for nervous system disorders” (priority 2000, published 2002), which cites them from elsewhere.

For the data set the following is noted: autistic children and adults, 18 consecutive studies 1965-1996.

On to Vitamin B-6, for which the helpfulness in autism entry was “helpful in almost half of all autistic children and adults”.
